Reference: patent publication US8034827B2, “Phenanthridine derivatives as bradykinin antagonists” (Richter Gegeon Nyrt., priority 2005, dated 2011)
Where a name gives a salt, the structure may show the parent alone.

Assays:
[1] = biological target: T1, recombinant human B1 receptors (Homo sapiens, UniProt P46663); assay: Antagonist potency by measurement of cytosolic calcium ion concentration in CHO-B1 cells (agonist LysDABK); format: cell-based; conditions: inhibition of LysDABK (EC80)-evoked [Ca2+]i elevation, fluo-4, read-out: B1 func.
T1 construct: host or cells: CHO (CHO-B1)
T1 sequence (P46663 1-353): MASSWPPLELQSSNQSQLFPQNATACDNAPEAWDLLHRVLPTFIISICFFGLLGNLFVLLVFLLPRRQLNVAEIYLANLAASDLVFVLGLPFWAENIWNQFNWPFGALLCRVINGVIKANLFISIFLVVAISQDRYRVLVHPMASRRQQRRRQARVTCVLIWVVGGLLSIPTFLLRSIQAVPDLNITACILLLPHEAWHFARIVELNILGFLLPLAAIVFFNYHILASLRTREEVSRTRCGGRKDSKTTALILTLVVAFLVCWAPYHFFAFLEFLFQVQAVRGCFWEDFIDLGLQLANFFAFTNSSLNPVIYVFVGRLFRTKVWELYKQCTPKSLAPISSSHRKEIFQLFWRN
Protocol: Assessment of Antagonist Potency at B1 and B2 Receptors In Vitro by Measurement of Cytosolic Calcium Ion Concentration with a Plate Reader Fluorimeter in Cells Expressing Recombinant Human B1 or B2 Receptors
Chinese hamster ovary (CHO) cells stably expressing recombinant human B1 (CHO-B1, Euroscreen) or B2 (CHO-B2, Perkin-Elmer) receptors were cultured in Dulbecco's Modified Eagle's Medium (DMEM) containing 10% Fetal Calf Serum (FCS), 100 U/ml penicillin, 0.1 mg/ml streptomycin, 0.25 μg/ml amphotericin B, 1% Minimum Essential Medium Eagle (MEM), non essential amino acid solution, 600 μg/ml G418, 1% pyruvate (for the B2 cell line). Cells were kept at 37° C. in a humidified incubator in an atmosphere of 5% CO2/95% air and were passaged 1:4 three times a week. Cells were plated at 1.5-2.5×10^4 cell/well on standard 96-well microplates, measurements of cytosolic calcium ion concentration ([Ca^2+]i) were carried out 1-2 days after cell plating.
Measurements of [Ca^2+]i were carried out on CHO-B1 and CHO-B2 cells stably expressing human B1 and B2 receptors, respectively. Cells were grown in standard 96-well microplates and before the measurement were loaded with a fluorescent Ca^2+-sensitive dye, fluo-4/AM (2 μM): after removing the culture medium the dye was added to the cells (dissolved in assay buffer: 145 mM NaCl, 5 mM KCl, 2 mM MgCl2, 2 mM CaCl2, 10 mM HEPES, 20 mM D-glucose, 2 mM probenecid, 100 μl/well) and cells were incubated at 37° C. in a humidified incubator in an atmosphere of 5% CO2/95% air for 40-120 min. To stop dye loading cells were washed twice with assay buffer. After washing, various concentrations of the test compounds (diluted in extracellular medium from a DMSO stock solution, final DMSO concentration was <0.1%) or buffer were added to each well depending on the experimental setup. After incubation at 37° C. for 20-25 min. baseline and agonist-evoked changes of [Ca^2+]i were measured column by column with a plate reader fluorimeter (Fluoroskan Ascent, Labsystems). Excitation and detection of emission was carried out from the bottom of the plate. Filters used for Fluo-4: excitation filter −485 nm, emission filter −538 nm. The whole measurement process was performed at 37° C. and was controlled by custom software. Inhibitory potency of the test compounds was assessed by measuring the reduction in the agonist-evoked [Ca^2+]i-elevation in the presence of different concentrations of the compounds. The agonists were LysDABK for CHO-B1, and bradykinin for CHO-B2 cells. Agonists were applied at an EC80 concentration, the EC80-values were derived from daily determined dose-response curves. Fluorescence data were expressed as ΔF/F (fluorescence change normalized to baseline). All treatments on a single plate were measured in multiple wells. Data from all wells with the same treatment were averaged and the average values were used for analysis. Inhibitory potency of a compound at a single concentration point was expressed as percent inhibition of the control agonist response. Sigmoidal concentration-inhibition curves were fitted to the data (derived from at least three independent experiments) and IC50-values were determined as the concentration that produces half of the maximal inhibition caused by the compound.

[2] = biological target: T2, human recombinant bradykinin1 receptors (Homo sapiens, UniProt P46663); assay: Human recombinant bradykinin B1 receptor binding; conditions: CHO cell membranes, [3H]-[Des-Arg10] Kallidin radioligand
T2 construct: host or cells: CHO cells
T2 sequence (P46663 1-353): T1 sequence (P46663 1-353)
Protocol: Receptor Binding Assays 1. Human Recombinant Bradykinin B1 Receptor Binding
Binding assays were carried out on human recombinant bradykinin1 receptors (expressed in CHO cells) according to the Euroscreen Technical Data Sheet (Cat. No.: ES-091). 20 μg protein/tube was incubated with [3,4-prolyl-3,4-^3H(N)]-[Des-Arg^10] Kallidin as radioligand. Non specific binding was determined in the presence of 10 μM Lys-des-Arg^9-Bradykinin. The final incubation volume was 250 μl. Samples were incubated for 15 min. at 25° C. then were rapidly vacuum filtered through GF/B filters presoaked for at least 1 h in 0.5% PEI. Radioactivity was determined by liquid scintillation spectroscopy.

Row | SMILES | IC50 [1] | Ki [2]
1 | NCc1ccc(CC(NC(=O)CC(NS(=O)(=O)c2ccc3ccccc3c2)c2ccccc2)C(=O)N2CCCC2)cc1 (racemic) [Example 70003770, (±)-N-[1-(4-aminomethyl-benzyl)-2-oxo-2-pyrrolidin-1-yl-ethyl]-3-(naphthalene-2-sulfonylamino)-3-phenyl-propionamide, reference compound] | > 500 nM | > 500 nM
2 | CCCN1C(=O)C(NC(=O)Nc2ccc(N3CCC(N4CCCCC4)CC3)cc2)N=C(c2ccc(C)cc2)c2ccccc21 (racemic) [Example 70004387, (±)-N-[4-(1,4′-bipiperidin)-1′-yl-phenyl]-N′-[2,3-dihydro-5-(4-methyl-phenyl)-2-oxo-1-propyl-1H-1,4-benzodiazepin-3-yl]-urea, reference compound] | 100 to 500 nM | < 100 nM
3 | O=C(CC1c2cc(F)ccc2-c2ccccc2N1S(=O)(=O)c1ccc(Cl)c(Cl)c1)NCCc1ccc(C2=NCCN2)cc1 (stereo not drawn) [Example 1, 2-[5-(3,4-Dichloro-benzenesulfonyl)-8-fluoro-5,6-dihydro-phenanthridin-6-yl]-N-{2-[4-(4,5-dihydro-1H-imidazol-2-yl)-phenyl]-ethyl}-acetamide hydrochloride] | < 100 nM | < 100 nM
4 | O=C(CC1c2ccccc2-c2ccccc2N1S(=O)(=O)c1ccc(Cl)c(Cl)c1)N1CCC(Cc2ccc(C3=NCCCN3)cc2)CC1 (stereo not drawn) [Example 6, 2-[5-(3,4-Dichloro-benzenesulfonyl)-5,6-dihydro-phenanthridin-6-yl]-1-{4-[4-(1,4,5,6-tetrahydro-pyrimidin-2-yl)-benzyl]-piperidin-1-yl}-ethanone] | < 100 nM | < 100 nM
5 | Cc1ccc(S(=O)(=O)N2c3ccccc3-c3ccccc3C2CC(=O)NCCc2ccc(C3=NCCN3)cc2)cc1 (stereo not drawn) [Example 14, N-{2-[4-(4,5-Dihydro-1H-imidazol-2-yl)-phenyl]-ethyl}-2-[5-(toluene-4-sulfonyl)-5,6-dihydro-phenanthridin-6-yl]-acetamide hydrochloride] | < 100 nM | < 100 nM
6 | Cc1cc(C)c(S(=O)(=O)N2c3ccccc3-c3ccccc3C2CC(=O)NCCc2ccc(C3=NCCN3)cc2)c(C)c1 (stereo not drawn) [Example 15, N-{2-[4-(4,5-Dihydro-1H-imidazol-2-yl)-phenyl]-ethyl}-2-[5-(2,4,6-trimethyl-benzenesulfonyl)-5,6-dihydro-phenanthridin-6-yl]-acetamide hydrochloride] | < 100 nM | < 100 nM
7 | COc1ccc(S(=O)(=O)N2c3ccccc3-c3ccccc3C2CC(=O)NCCc2ccc(C3=NCCN3)cc2)cc1 (stereo not drawn) [Example 16, N-{2-[4-(4,5-Dihydro-1H-imidazol-2-yl)-phenyl]-ethyl}-2-[5-(4-methoxy-benzenesulfonyl)-5,6-dihydro-phenanthridin-6-yl]-acetamide hydrochloride] | < 100 nM | < 100 nM
8 | COc1cccc2c1-c1ccccc1N(S(=O)(=O)c1ccc(Cl)c(Cl)c1)C2CC(=O)NCCc1ccc(C2=NCCN2)cc1 (stereo not drawn) [Example 17, 2-[5-(3,4-Dichloro-benzenesulfonyl)-10-methoxy-5,6-dihydro-phenanthridin-6-yl]-N-{2-[4-(4,5-dihydro-1H-imidazol-2-yl)-phenyl]-ethyl}-acetamide hydrochloride] | < 100 nM | < 100 nM
9 | O=C(CC1c2cc(F)cc(F)c2-c2ccccc2N1S(=O)(=O)c1ccc(Cl)c(Cl)c1)NCCc1ccc(C2=NCCN2)cc1 (stereo not drawn) [Example 18, 2-[5-(3,4-Dichloro-benzenesulfonyl)-8,10-difluoro-5,6-dihydro-phenanthridin-6-yl]-N-{2-[4-(4,5-dihydro-1H-imidazol-2-yl)-phenyl]-ethyl}-acetamide hydrochloride] | < 100 nM | < 100 nM
10 | CC(=O)c1ccc2c(c1)C(CC(=O)NCCc1ccc(C3=NCCN3)cc1)N(S(=O)(=O)c1ccc(Cl)c(Cl)c1)c1ccccc1-2 (stereo not drawn) [Example 19, 2-[8-Acetyl-5-(3,4-dichloro-benzenesulfonyl)-5,6-dihydro-phenanthridin-6-yl]-N-{2-[4-(4,5-dihydro-1H-imidazol-2-yl)-phenyl]-ethyl}-acetamide hydrochloride] | 100 to 500 nM | < 100 nM
11 | COc1cccc2c1-c1ccccc1N(S(=O)(=O)c1ccc(Cl)c(Cl)c1)C2CC(=O)N[C@H]1CC[C@H](CCN2CCCC2)CC1 (stereo partly drawn) [Example 21, trans-2-[5-(3,4-Dichloro-benzenesulfonyl)-10-methoxy-5,6-dihydro-phenanthridine-6-yl]-N-[4-(2-pyrrolidin-1-ylethyl)-cyclohexyl]-acetamide] | < 100 nM | < 100 nM

Results, then the compound that gave them:

Row | IC50 [1] | Ki [2] | SMILES
12 | < 100 nM | < 100 nM | O=C(CC1c2ccccc2-c2ccccc2N1S(=O)(=O)c1ccc(Cl)c(Cl)c1)NCCc1ccc(C2=NCCN2)cc1 (stereo not drawn) [Example 2, 2-[5-(3,4-Dichloro-benzenesulfonyl)-5,6-dihydro-phenanthridin-6-yl]-N-{2-[4-(4,5-dihydro-1H-imidazol-2-yl)-phenyl]-ethyl}-acetamide hydrochloride]
13 | < 100 nM | < 100 nM | O=C(CC1c2ccccc2-c2ccccc2N1S(=O)(=O)c1ccc(Cl)c(Cl)c1)NCCN1CCN(c2ccncc2)CC1 (stereo not drawn) [Example 3]
14 | < 100 nM | < 100 nM | O=C(CC1c2ccccc2-c2ccccc2N1S(=O)(=O)c1ccc(Cl)c(Cl)c1)N[C@H]1CC[C@H](CCN2CCCC2)CC1 (stereo partly drawn) [Example 4, trans-2-[5-(3,4-Dichloro-benzenesulfonyl)-5,6-dihydro-phenanthridin-6-yl]-N-[4-(2-pyrrolidin-1-yl-ethyl)-cyclohexyl]-acetamide]
15 | < 100 nM | < 100 nM | O=C(CC1c2ccccc2-c2ccccc2N1S(=O)(=O)c1ccc(Cl)c(Cl)c1)N1CCC(Cc2ccc(C3=NCCN3)cc2)CC1 (stereo not drawn) [Example 5, 2-[5-(3,4-Dichloro-benzenesulfonyl)-5,6-dihydro-phenanthridin-6-yl]-1-{4-[4-(4,5-dihydro-1H-imidazol-2-yl)-benzyl]-piperidin-1-yl}-ethanone]
16 | 100 to 500 nM | < 100 nM | O=C(CC1c2ccccc2-c2ccccc2N1S(=O)(=O)c1ccc(Cl)c(Cl)c1)Nc1ccc(N2CCC(N3CCCCC3)CC2)cc1 (stereo not drawn) [Example 8, N-(4-[1,4′]Bipiperidinyl-1-yl-phenyl)-2-[5-(3,4-dichloro-benzenesulfonyl)-5,6-dihydro-phenanthridin-6-yl]-acetamide]
17 | < 100 nM | < 100 nM | O=C(CC1c2ccccc2-c2ccccc2N1S(=O)(=O)c1ccc(Cl)c(Cl)c1)NCCCN1CCN(c2ccncc2)CC1 (stereo not drawn) [Example 9, 2-[5-(3,4-Dichloro-benzenesulfonyl)-5,6-dihydro-phenanthridin-6-yl]-N-[3-(4-pyridin-4-yl-piperazin-1-yl)-propyl]-acetamide]
18 | < 100 nM | < 100 nM | N=C(N)c1ccc(CCNC(=O)CC2c3ccccc3-c3ccccc3N2S(=O)(=O)c2ccc(Cl)c(Cl)c2)cc1 (stereo not drawn) [Example 20, N-[2-(4-Carbamimidoyl-phenyl)-ethyl]-2-[5-(3,4-dichloro-benzenesulfonyl)-5,6-dihydro-phenanthridin-6-yl]-acetamide]
